According to PubChem BioAssay (NCI):
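Values below derive from 48-hour exposures of cells grown in 96-well plates, with endpoints linearly interpolated between the two concentrations bracketing the appropriate inhibition level. GI50 = concentration required for 50% inhibition of growth. TGI denotes the concentration required for complete inhibition of growth.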

Assays:
Assay in all cases: NCI anticancer screen, dose series, 48 h
[1] = system: SN12C renal
[2] = system: NCI-H226 lung
[3] = system: A498 renal
[4] = system: UACC-257 melanoma
[5] = system: KM12 colon
[6] = system: HL-60(TB) leukemia
[7] = system: ACHN renal
[8] = system: A549 NSCLC
[9] = system: MDA-MB-435
[10] = system: NCI/ADR-RES ovarian

| SMILES | TGI [1] | TGI [2] | TGI [3] | TGI [4] | TGI [5] | TGI [6] | TGI [7] | TGI [8] | TGI [9] | TGI [10] | GI50 [1] | GI50 [2] | GI50 [9] | GI50 [3] | GI50 [10] | GI50 [4] | GI50 [5] | GI50 [7] | GI50 [8] | GI50 [6] |
| --- | --- | --- | --- | --- | --- | --- | --- | --- | --- | --- | --- | --- | --- | --- | --- | --- | --- | --- | --- | --- |
| O=c1cc2n(c(=O)[nH]1)C1OC(C(O)C1O)[C@H]2CCO (some centres not stated) | > 100 µM | > 100 µM | > 100 µM | > 100 µM | > 100 µM | > 100 µM | > 100 µM | > 100 µM |  |  |  |  |  |  |  |  |  |  |  |  |
| O=C(c1ccccn1)c1nnn2ccccc12 | > 100 µM | > 100 µM | > 100 µM | > 100 µM | > 100 µM | > 100 µM | > 100 µM | > 100 µM | > 100 µM |  |  |  |  |  |  |  |  |  |  |  |
| Cc1cc(Cl)ccc1NC(=O)/C(Cl)=C(/Cl)C(=O)O | 35 µM |  |  | 36.1 µM | 82.8 µM | > 100 µM | 36.1 µM | > 100 µM | 45.9 µM | 74.2 µM |  |  |  |  |  |  |  |  |  |  |
| COC(=O)NNc1c([N+](=O)[O-])cnn(-c2ccccc2)c1=O | 3.49 µM | 9.78 µM | 78.2 µM | 6.33 µM | 16.9 µM | 3.06 µM | 10.2 µM | 28.2 µM | 3.03 µM |  |  |  |  |  |  |  |  |  |  |  |
| O=C(CCc1nnc2s/c(=C\c3ccc4c(c3)OCO4)c(=O)n12)Nc1cc(Cl)ccc1Cl | > 100 µM | > 100 µM | > 100 µM | > 100 µM | > 100 µM | > 100 µM | > 100 µM | > 100 µM |  |  |  |  |  |  |  |  |  |  |  |  |
| Nc1nc(=O)n(C2CC(O)C(O)C(CO)O2)cc1F (configuration not stated) | > 100 µM | > 100 µM | > 100 µM | > 100 µM |  | > 100 µM | > 100 µM | > 100 µM |  |  |  |  |  |  |  |  |  |  |  |  |
| CN(C)c1ccccc1CC(c1c[nH]c2ccccc12)c1c[nH]c2ccccc12 | 12.7 µM | 25.7 µM | 31.1 µM | 31.8 µM | 14.5 µM | 25.3 µM | 20.6 µM | 22.2 µM |  |  |  |  |  |  |  |  |  |  |  |  |
| O=C(CC1(O)C(=O)Nc2c(Cl)cccc21)c1ccccc1 (configuration not stated) | > 100 µM | > 100 µM |  | > 100 µM | > 100 µM | > 100 µM | > 100 µM | > 100 µM |  |  |  |  |  |  |  |  |  |  |  |  |
| O=C1C(c2ccc([N+](=O)[O-])cc2)=[N+]([O-])c2ccccc21 | 93.5 µM | > 100 µM |  |  | > 100 µM | 71.9 µM | > 100 µM | > 100 µM |  |  |  |  |  |  |  |  |  |  |  |  |
| Cc1cc2cc(Cl)ccc2nc1C(=O)c1ccccc1 | > 100 µM | > 100 µM |  | > 100 µM | > 100 µM |  | > 100 µM | > 100 µM |  |  |  |  |  |  |  |  |  |  |  |  |
| CC(C)(C)C(=O)OCOP(=O)(OCOC(=O)C(C)(C)C)C1CCCN(OC(=O)c2ccccc2)C1=O (configuration not stated) | 7.19 µM | 19.5 µM | 0.832 µM | 22.4 µM | 5.94 µM |  | 11.7 µM | 25.2 µM | 17.6 µM | 7.76 µM | 0.337 µM | 1.34 µM | 3 µM | 0.283 µM | 0.721 µM | 3.43 µM | 0.549 µM | 0.666 µM | 2.02 µM |  |
| COC(=O)CSc1ccccc1 | > 100 µM |  | > 100 µM | > 100 µM | > 100 µM | > 100 µM | > 100 µM | > 100 µM |  |  |  |  |  |  |  |  |  |  |  |  |
| O=c1c2cc(Br)ccc2[nH]c(=S)n1-c1ccc(Br)cc1 | > 100 µM | > 100 µM | > 100 µM | > 100 µM | > 100 µM | > 100 µM | > 100 µM | > 100 µM |  |  |  |  |  |  |  |  |  |  |  |  |
| CN(C)c1ccc(/C=C/C(=O)c2ccccc2)cc1Br | 45.2 µM |  | > 100 µM | 52.6 µM | 33.3 µM |  | 51.1 µM | > 100 µM |  |  |  |  |  |  |  |  |  |  |  |  |
| COc1ccc(C(=O)C(c2ccc(OC)cc2)C2C(=O)Oc3ccccc32)cc1 (configuration not stated) | > 100 µM | > 100 µM | > 100 µM | > 100 µM | > 100 µM |  | > 100 µM | > 100 µM |  |  | > 100 µM | > 100 µM |  | > 100 µM |  | > 100 µM | > 100 µM | > 100 µM | > 100 µM |  |
| CC(=O)Oc1ccc2ccc(=O)oc2c1OC(C)=O | > 100 µM |  | > 100 µM | > 100 µM | > 100 µM | 38.1 µM | > 100 µM | > 100 µM | > 100 µM | > 100 µM |  |  |  |  |  |  |  |  |  |  |
| COc1ccc(CN2C(=O)C(Cc3cc(OC)c(OC)c(C)c3OC)N(C(=O)OC(C)C)C(=O)/C2=C/c2cc(OC)c(OC)c(C)c2OC)cc1 (configuration not stated) | > 100 µM | > 100 µM | > 100 µM | > 100 µM | > 100 µM | > 100 µM | > 100 µM | > 100 µM |  |  |  |  |  |  |  |  |  |  |  |  |
| COc1ccc(S(=O)(=O)N2CCN(C(=O)OCc3ccccc3)CC2C(=O)NO)cc1 (configuration not stated) | > 25 µM | > 25 µM | > 25 µM | > 25 µM | > 25 µM |  | > 25 µM | > 25 µM | > 25 µM | > 25 µM | > 25 µM | > 25 µM | 13.4 µM | 24.6 µM | > 25 µM | > 25 µM | > 25 µM | 10.6 µM | > 25 µM |  |
| CN(C)CCCNC(=O)c1cc(NC(=O)CCNC(=O)c2ccc3c(c2)C(=O)c2ccccc2C3=O)cn1C | > 100 µM | > 100 µM | > 100 µM | 95.5 µM | > 100 µM | > 100 µM |  | > 100 µM | > 100 µM | > 100 µM | > 100 µM | > 100 µM | > 100 µM | > 100 µM | > 100 µM | 21.8 µM | 40.8 µM |  | > 100 µM | > 100 µM |
| O=C(CCCCC(=O)N/N=C\c1ccccc1Cl)N/N=C\c1ccccc1Cl | > 100 µM | > 100 µM | 38.1 µM | > 100 µM |  |  | > 100 µM | > 100 µM |  | > 100 µM | 7.44 µM | 15.4 µM |  | 3.13 µM | 1.2 µM | 2.54 µM |  | 1.91 µM | 1.77 µM |  |
| COc1cc(-c2cc(/C=C/C(=O)c3ccc4c(c3)OCO4)[nH]n2)cc(OC)c1OC | > 100 µM | > 100 µM | 15.4 µM | 40.3 µM |  | 6.36 µM | 3.71 µM | > 100 µM |  | > 100 µM | 3.94 µM | 3.31 µM |  | 2.76 µM | 4.23 µM | 2.46 µM |  | 1.88 µM | 4.32 µM | 2.17 µM |
